Patent US20230192705A1, “SHP2 INHIBITORS, COMPOSITIONS AND USES THEREOF” (Betta Pharmaceuticals Co., Ltd, priority 2020, published 2023)

Molecular target: T1, SHP2 (Homo sapiens, UniProt Q06124)
T1 sequence (Q06124 1-593): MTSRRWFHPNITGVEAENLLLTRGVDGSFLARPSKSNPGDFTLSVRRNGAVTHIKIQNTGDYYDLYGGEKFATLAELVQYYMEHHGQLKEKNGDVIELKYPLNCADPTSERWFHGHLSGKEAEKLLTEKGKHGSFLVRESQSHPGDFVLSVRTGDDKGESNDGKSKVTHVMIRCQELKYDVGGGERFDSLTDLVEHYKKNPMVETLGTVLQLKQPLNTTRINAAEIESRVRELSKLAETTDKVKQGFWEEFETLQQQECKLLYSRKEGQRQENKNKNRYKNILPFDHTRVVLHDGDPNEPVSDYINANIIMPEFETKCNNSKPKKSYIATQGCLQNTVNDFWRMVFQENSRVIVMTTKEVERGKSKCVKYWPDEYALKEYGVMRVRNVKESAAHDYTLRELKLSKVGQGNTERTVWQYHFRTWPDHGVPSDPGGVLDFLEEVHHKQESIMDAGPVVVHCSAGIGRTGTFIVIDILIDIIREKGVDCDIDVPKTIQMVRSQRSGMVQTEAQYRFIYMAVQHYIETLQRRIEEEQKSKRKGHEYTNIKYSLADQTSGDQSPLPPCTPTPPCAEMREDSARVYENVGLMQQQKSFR
Assay: SHP2 allosteric inhibitor enzyme activity assay (DiFMUP fluorescence)
Format: biochemical
Settings: class symbols
Method in brief: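 SHP2 activated by 0.5 μM IRS1_pY1172(dPEG8)pY1222 peptide, 0.2 ng enzyme per well, 1 h at room temperature with compound (1 μM top, 3-fold series), then DiFMUP substrate 1 h. Buffer: 60 mM HEPES, 75 mM NaCl, 75 mM KCl, 0.05% BRIJ-35, 1 mM EDTA, 5 mM DTT. Fluorescence ex 340/em 450 nm; IC50 by variable-slope fit.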

IC50 [nM]	SMILES
≤ 20	N[C@@H]1c2ccccc2CC12CCN(c1nc3[nH]nc(C4(c5cccc(C6CCOC6)c5)CC4)c3c(=O)[nH]1)CC2 (stereo partly drawn) [Example 39, 6-((S)-1-amino-1,3-dihydrospiro[indene-2,4′-piperidin]-1′-yl)-3-(1-(3-(tetrahydrofuran-3-yl)phenyl)cyclopropyl)-1,5-dihydro-4H-pyrazolo[3,4-d]pyrimidin-4-one]
≤ 20	N[C@@H]1c2ccccc2CC12CCN(c1nc3[nH]nc(C4(c5cccc(Cl)c5Cl)CC4)c3c(=O)[nH]1)CC2 [Example 49, (S)-6-(1-amino-1,3-dihydrospiro[indene-2,4′-piperidin]-1′-yl)-3-(1-(2,3-dichlorophenyl)cyclopropyl)-1,5-dihydro-4H-pyrazolo[3,4-d]pyrimidin-4-one]
≤ 20	N[C@@H]1c2ccccc2CC12CCN(c1nc3[nH]nc(C4(c5ccnc(OC(F)F)c5)CC4)c3c(=O)[nH]1)CC2 [Example 53, (S)-6-(1-amino-1,3-dihydrospiro[indene-2,4′-piperidin]-1′-yl)-3-(1-(2-(difluoromethoxy)pyridin-4-yl)cyclopropyl)-1,5-dihydro-4H-pyrazolo[3,4-d]pyrimidin-4-one]
> 60	CC1(C)CC1(c1ccccc1)c1n[nH]c2nc(N3CCC4(CC3)Cc3ccccc3[C@H]4N)[nH]c(=O)c12 (stereo partly drawn) [Example 5, 6-((S)-1-amino-1,3-dihydrospiro[indene-2,4′-piperidin]-1′-yl)-3-(2,2-dimethyl-1-phenylcyclopropyl)-1,5-dihydro-4H-pyrazolo[3,4-d]pyrimidin-4-one]
≤ 20	CC1(C)CC=C(c2n[nH]c3nc(N4CCC5(CC4)Cc4ccccc4C5N)[nH]c(=O)c23)c2cccnc21 (stereo not shown) [Example 127, 6-(1-amino-1,3-dihydrospiro[indene-2,4′-piperidin]-1′-yl)-3-(8,8-dimethyl-7,8-dihydroquinolin-5-yl)-1,5-dihydro-4H-pyrazolo[3,4-d]pyrimidin-4-one]
≤ 20	N[C@@H]1c2ccccc2CC12CCN(c1nc3[nH]nc(C4(c5ccnc(Cl)c5)CC4)c3c(=O)[nH]1)CC2 [Example 25, (S)-6-(1-amino-1,3-dihydrospiro[indene-2,4′-piperidin]-1′-yl)-3-(1-(2-chloropyridin-4-yl)cyclopropyl)-1,5-dihydro-4H-pyrazolo[3,4-d]pyrimidin-4-one]
≤ 20	N[C@@H]1c2ccccc2CC12CCN(c1nc3[nH]nc(C4(c5cccc6ccccc56)CC4)c3c(=O)[nH]1)CC2 [Example 77, (S)-6-(1-amino-1,3-dihydrospiro[indene-2,4′-piperidin]-1′-yl)-3-(1-(naphthalen-1-yl)cyclopropyl)-1,5-dihydro-4H-pyrazolo[3,4-d]pyrimidin-4-one]
≤ 20	N[C@@H]1c2ccccc2CC12CCN(c1cnc3c(C4(c5ccccc5)CC4)n[nH]c3n1)CC2 [Example 2, (S)-1′-(3-(1-phenylcyclopropyl)-1H-pyrazolo[3,4-b]pyrazin-6-yl)-1,3-dihydrospiro[indene-2,4′-piperidin]-1-amine]
≤ 20	N[C@@H]1c2cc(Cl)ccc2CC12CCN(c1nc3[nH]nc(C4(c5ccccc5)CC4)c3c(=O)[nH]1)CC2 [Example 194, (S)-6-(1-amino-6-chloro-1,3-dihydrospiro[indene-2,4′-piperidin]-1′-yl)-3-(1-phenylcyclopropyl)-1,5-dihydro-4H-pyrazolo[3,4-d]pyrimidin-4-one]
≤ 20	N[C@@H]1c2ccccc2CC12CCN(c1nc3[nH]nc(-c4cc(=O)oc5ccccc45)c3c(=O)[nH]1)CC2 [Example 174, (S)-6-(1-amino-1,3-dihydrospiro[indene-2,4′-piperidin]-1′-yl)-3-(2-oxo-2H-chromen-4-yl)-1,5-dihydro-4H-pyrazolo[3,4-d]pyrimidin-4-one]
≤ 20	N[C@@H]1c2ccccc2CC12CCN(c1nc3[nH]nc(C4(c5nn[nH]n5)CC4)c3c(=O)[nH]1)CC2 [Example 246, (S)-3-(1-(2H-tetrazol-5-yl)cyclopropyl)-6-(1-amino-1,3-dihydrospiro[indene-2,4′-piperidin]-1′-yl)-1,5-dihydro-4H-pyrazolo[3,4-d]pyrimidin-4-one]
≤ 20	N#Cc1cc(C2(c3n[nH]c4nc(N5CCC6(CC5)Cc5ccccc5[C@H]6N)[nH]c(=O)c34)CC2)ccn1 [Example 26, (S)-4-(1-(6-(1-amino-1,3-dihydrospiro[indene-2,4′-piperidin]-1′-yl)-4-oxo-4,5-dihydro-1H-pyrazolo[3,4-d]pyrimidin-3-yl)cyclopropyl)picolinonitrile]
≤ 20	N[C@@H]1c2ccccc2CC12CCN(c1nc3[nH]nc(C4(c5ccsc5)CC4)c3c(=O)[nH]1)CC2 [Example 236, (S)-6-(1-amino-1,3-dihydrospiro[indene-2,4′-piperidin]-1′-yl)-3-(1-(thiophen-3-yl)cyclopropyl)-l,5-dihydro-4H-pyrazolo[3,4-d]pyrimidin-4-one]

Further lines, the compound ahead of its results:

SMILES	IC50 [nM]
C[C@@H]1OCC2(CCN(c3ncc4c(C5(c6ccccc6)CC5)n[nH]c4n3)CC2)[C@@H]1N [Example 267, (3S,4S)-3-methyl-8-(3-(1-phenylcyclopropyl)-1H-pyrazolo[3,4-d]pyrimidin-6-yl)-2-oxa-8-azaspiro[4.5]decan-4-amine]	20 to 60
C[C@@H]1OCC2(CCN(c3nc4[nH]nc(C5(c6ccccn6)CC5)c4c(=O)[nH]3)CC2)[C@@H]1N [Example 276, 6-((3S,4S)-4-amino-3-methyl-2-oxa-8-azaspiro[4.5]decan-8-yl)-3-(1-(pyridin-2-yl)cyclopropyl)-1,5-dihydro-4H-pyrazolo[3,4-d]pyrimidin-4-one]	20 to 60
Cc1nc2c(s1)C(c1n[nH]c3nc(N4CCC5(CC4)Cc4ccccc4C5N)[nH]c(=O)c13)=CC(C)(C)C2 (stereo not shown) [Example 129]	20 to 60
Cc1ncc2c(n1)CC(C)(C)C=C2c1n[nH]c2nc(N3CCC4(CC3)Cc3ccccc3[C@H]4N)[nH]c(=O)c12 [Example 147, (S)-6-(l-amino-1,3-dihydrospiro[indene-2,4'-piperidin]-1′-yl)-3-(2,7,7-trimethyl-7,8-dihydroquinazolin-5-yl)-1,5-dihydro-4H-pyrazolo[3,4-d]pyrimidin-4-one]	≤ 20
Cn1c2c(c3ccccc31)C(c1n[nH]c3nc(N4CCC5(CC4)Cc4ccccc4[C@H]5N)[nH]c(=O)c13)=CCC2 [Example 113, (S)-6-(1-amino-1,3-dihydrospiro[indene-2,4′-piperidin]-1′-yl)-3-(9-methyl-2,9-dihydro-1H-carbazol-4-yl)-1,5-dihydro-4H-pyrazolo[3,4-d]pyrimidin-4-one]	≤ 20
CN1CC=C(c2n[nH]c3nc(N4CCC5(CC4)Cc4ccccc4[C@H]5N)[nH]c(=O)c23)c2ccccc21 [Compound 178, (S)-6-(1-amino-1,3-dihydrospiro[indene-2,4′-piperidin]-1′-yl)-3-(1-methyl-1,2-dihydroquinolin-4-yl)-1,5-dihydro-4H-pyrazolo[3,4-d]pyrimidin-4-one, reference compound]	≤ 20
C[C@@H]1OCC2(CCN(c3ncc(C4(c5ccccc5)CC4)c(=O)[nH]3)CC2)[C@@H]1N [Example 262, 2-((3S,4S)-4-amino-3-methyl-2-oxa-8-azaspiro[4.5]decan-8-yl)-5-(1-phenylcyclopropyl)pyrimidin-4(3H)-one]	> 60
C[C@@H]1OCC2(CCN(C3=NC4=NCCN4C(N)=C3C3(c4ccccc4)CC3)CC2)[C@@H]1N [Example 266, (3S,4S)-8-(5-amino-6-(1-phenylcyclopropyl)-2,3-dihydroimidazo[1,2-a]pyrimidin-7-yl)-3-methyl-2-oxa-8-azaspiro[4.5]decan-4-amine]	> 60
C[C@@H]1OCC2(CCN(c3cnc4c(C5(c6ccsc6)CC5)n[nH]c4n3)CC2)[C@@H]1N [Example 268, (3S,4S)-3-methyl-8-(3-(1-(thiophen-3-yl)cyclopropyl)-1H-pyrazolo[3,4-b]pyrazin-6-yl)-2-oxa-8-azaspiro[4.5]decan-4-amine]	20 to 60
Cc1nc(N2CCC3(CC2)CO[C@@H](C)[C@H]3N)c(CO)nc1C1(c2ccccc2)CC1 [Example 261, (3-((3S,4S)-4-amino-3-methyl-2-oxa-8-azaspiro[4.5]decan-8-yl)-5-methyl-6-(1-phenylcyclopropyl)pyrazin-2-yl)methanol]	> 60
CCOC(=O)Nc1ccc(C2(c3n[nH]c4nc(N5CCC6(CC5)CO[C@@H](C)[C@H]6N)[nH]c(=O)c34)CC2)cc1 [Example 303, ethyl(4-(1-(6-((3S,4S)-4-amino-3-methyl-2-oxa-8-azaspiro[4.5]decan-8-yl)-4-oxo-4,5-dihydro-1H-pyrazolo[3,4-d]pyrimidin-3-yl)cyclopropyl)phenyl)carbamate]	20 to 60
Cn1ccc2c1CCC=C2c1n[nH]c2nc(N3CCC4(CC3)Cc3ccccc3[C@H]4N)[nH]c(=O)c12 [Example 120, (S)-6-(1-amino-1,3-dihydrospiro[indene-2,4′-piperidin]-1′-yl)-3-(1-methyl-6,7-dihydro-1H-indol-4-yl)-1,5-dihydro-4H-pyrazolo[3,4-d]pyrimidin-4-one]	≤ 20
